Results: publication PMC9076072 (RSC Advances, 2019)

Test system: RAW 264.7 macrophages
Experiment: Macrophage cytotoxicity seen in the anti-inflammatory assay

| Structure (SMILES) | Concentration at which macrophage cytotoxicity appeared [µM] |
| --- | --- |
| C=C(C)[C@@H]1CC[C@]2(C(=O)O)CC[C@]3(C)[C@H](CC[C@@H]4[C@@]5(C)CC[C@H](O)C(C)(C)[C@@H]5CC[C@]43C)[C@@H]12 [Compound 1, Betulinic acid] | 20 |
| C[C@H]1[C@H](C)CC[C@]2(C(=O)O)CC[C@]3(C)C(=CC[C@@H]4[C@@]5(C)CC[C@H](O)C(C)(C)[C@@H]5CC[C@]43C)[C@H]12 [Compound 2, Ursolic acid] | 20 |
